According to doi:10.1101/2023.09.04.556216v2 (bioRxiv, 2023):
Numbered stars: 1 amine (or outer) side, 2 acyl side, 3 side chain; on linkers, the order of the positions; unused ones are H or OH. Bridge positions count the residues as written; N and C are the ends. Peptide text beside a SMILES is read from it. Biphenyl(4,4'-CH2)2 = c1cc(-c2ccc(C[*:2])cc2)ccc1C[*:1]

Assays:
PC3 or DU145 = experiment: Colony formation assay; type: cell-based; conditions: 15 μM peptide, PC3 or DU145, n=3
PC3 xenograft tumor = PC3 xenograft tumor model; type: in vivo, BALB/c nude mice; conditions: for decrease of Ki67 in tumor (IHC) / increase of caspase-3 expression in tumor (IHC) / reduction in METTL3 expression in tumor (IHC) / reduction in m6A levels in tumor (IHC): 20 mg/kg peritumoral; for reduction in METTL3 expression in tumor (IHC) / reduction in m6A levels in tumor (IHC): compared to R9 and PBS groups; for average tumor mass relative to PBS group: 20 mg/kg, 10 days of treatment, Fig. S19c
PCa cells = experiment: EdU labeling of cell proliferation; type: cell-based; conditions: 15 μM peptide, EdU labeling 2 h
m6A modification = experiment: m6A ELISA in cells; type: cell-based; conditions: PC3 or DU145 cells, Fig. 5f
METTL3 = METTL3 (Homo sapiens, UniProt Q86U44); experiment: Western blot of METTL3/METTL14 level and half-life; type: cell-based; conditions: for METTL3 half-life: PC3 cells pre-treated with cycloheximide (CHX), WB, 25 μM over 12 h; for METTL3 (and METTL14) protein levels by WB: PC3 cells, RSM3 25 μM, 12 h
DU145 = experiment: Annexin V-FITC flow cytometry apoptosis, DU145; type: cell-based; conditions: 15 μM peptide, PBS ∼5%
[1] = Serum stability in 25% FBS; type: in vitro ADME, bovine; conditions: 25% FBS (serum:buffer 1:3), pH 7.4
METTL3/METTL14 complex = METTL3/METTL14 complex (Homo sapiens, UniProt Q86U44); experiment: Co-Immunoprecipitation of METTL3 and METTL14; type: cell-based; conditions: Co-IP, quantitative analysis, Fig. S11
ASPC-1 xenograft tumors = experiment: ASPC-1 xenograft tumor model; type: in vivo, mice; conditions: 20 mg/kg, 10 days of treatment
DU145 cells = experiment: Cell viability; type: cell-based; parameters: unit not given beside the values; conditions: comparison experiment Fig. S17, unit not given
PC3 cells [2] = experiment: Annexin V-FITC flow cytometry apoptosis, PC3; type: cell-based; conditions: 15 μM peptide
PC3 cells [3] = experiment: Cell viability; type: cell-based; parameters: unit not given beside the values; conditions: comparison experiment Fig. S17, unit not given
PC3 cells [4] = experiment: Flow cytometry cell cycle analysis, PC3; type: cell-based; conditions: 15 µM, 12 h, PBS group ∼8.5%
[5] = peri-tumoral injection 20 mg/kg every two days for two weeks

Chain of METTL3 (Q86U44 whole entry): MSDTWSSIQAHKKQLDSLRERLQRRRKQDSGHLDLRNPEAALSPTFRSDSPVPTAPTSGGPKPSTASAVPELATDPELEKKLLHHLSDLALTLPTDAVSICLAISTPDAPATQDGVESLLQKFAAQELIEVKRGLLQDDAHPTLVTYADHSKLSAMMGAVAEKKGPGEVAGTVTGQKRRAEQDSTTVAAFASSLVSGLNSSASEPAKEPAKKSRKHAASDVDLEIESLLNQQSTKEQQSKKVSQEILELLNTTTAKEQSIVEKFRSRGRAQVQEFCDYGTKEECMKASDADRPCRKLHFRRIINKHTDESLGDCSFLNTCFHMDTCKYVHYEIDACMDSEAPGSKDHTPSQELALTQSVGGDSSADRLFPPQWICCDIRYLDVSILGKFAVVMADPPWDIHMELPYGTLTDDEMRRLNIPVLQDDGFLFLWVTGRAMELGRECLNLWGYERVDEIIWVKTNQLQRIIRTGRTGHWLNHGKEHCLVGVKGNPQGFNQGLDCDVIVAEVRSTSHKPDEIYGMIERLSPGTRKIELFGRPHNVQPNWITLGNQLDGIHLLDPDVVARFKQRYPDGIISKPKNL
Chain of METTL3/METTL14 complex (Q86U44 whole entry, one chain of several): as the sequence (Q86U44 whole entry) above

Compound: CSCC[C@H](NC(=O)[C@H](CS)NC(=O)[C@H](CCCNC(=N)N)NC(=O)[C@H](CCCNC(=N)N)NC(=O)[C@H](CCCNC(=N)N)NC(=O)[C@H](CCCNC(=N)N)NC(=O)[C@H](CCCNC(=N)N)NC(=O)[C@H](CCCNC(=N)N)NC(=O)[C@H](CCCNC(=N)N)NC(=O)[C@H](CCCNC(=N)N)NC(=O)[C@H](CCCNC(=N)N)NC(=O)[C@@H](N)CCCNC(=N)N)C(=O)N[C@@H](CCC(=O)O)C(=O)N[C@@H](CC(C)C)C(=O)NCC(=O)N[C@@H](CCCNC(=N)N)C(=O)N[C@@H](CCC(=O)O)C(=O)N[C@@H](CS)C(=O)N[C@@H](CC(C)C)C(=O)N[C@@H](CC(N)=O)C(=O)N[C@@H](CC(C)C)C(=O)N[C@@H](Cc1c[nH]c2ccccc12)C(N)=O [RM3] (H-RRRRRRRRRRCMELGRECLNLW-NH2; N-terminus assumed)
- fold reduction in colony formation (PC3 or DU145): ~20 fold
- decrease of Ki67 in tumor (IHC) (PC3 xenograft tumor): ~65%
- increase of caspase-3 expression in tumor (IHC) (PC3 xenograft tumor): ~1.8 fold
- reduction in METTL3 expression in tumor (IHC) (PC3 xenograft tumor): ~50%
- reduction in m6A levels in tumor (IHC) (PC3 xenograft tumor): ~50%
- tumor growth compared to R9 or PBS control groups (PC3 xenograft tumor; [5]): significant suppression of tumor growth
- EdU signal relative to PBS control group (PCa cells): ~47.0%
- m6A modification level relative to R9 and PBS treatment groups (m6A modification): ~20%
- METTL3 half-life (METTL3): dramatically reduced half-life

Compound: CSCC[C@@H]1NC(=O)[C@@H](NC(=O)[C@H](CCCNC(=N)N)NC(=O)[C@H](CCCNC(=N)N)NC(=O)[C@H](CCCNC(=N)N)NC(=O)[C@H](CCCNC(=N)N)NC(=O)[C@H](CCCNC(=N)N)NC(=O)[C@H](CCCNC(=N)N)NC(=O)[C@H](CCCNC(=N)N)NC(=O)[C@H](CCCNC(=N)N)NC(=O)[C@H](CCCNC(=N)N)NC(=O)[C@@H](N)CCCNC(=N)N)CSCc2ccc(cc2)-c2ccc(cc2)CSC[C@@H](C(=O)N[C@@H](CC(C)C)C(=O)N[C@@H](CC(N)=O)C(=O)N[C@@H](CC(C)C)C(=O)N[C@@H](Cc2c[nH]c3ccccc23)C(N)=O)NC(=O)[C@H](CCC(=O)O)NC(=O)[C@H](CCCNC(=N)N)NC(=O)CNC(=O)[C@H](CC(C)C)NC(=O)[C@H](CCC(=O)O)NC1=O [RSM3] (H-RRRRRRRRRRCMELGRECLNLW-NH2; linker 11-18 via Biphenyl(4,4'-CH2)2; N-terminus assumed)
- cells that entered apoptosis, DU145 (DU145): ~30%
- remaining at 6 h, 200 µM [1]: ~41.8%
- reduction of METTL3-METTL14 interaction (METTL3/METTL14 complex): fifty
- tumor weight, lighter than PBS- and R9-treated controls (ASPC-1 xenograft tumors): ~50%
- fold reduction in colony formation (PC3 or DU145): ~20 fold
- IC50 in DU145, RSM3 vs STM2457 (DU145 cells): 33.6 ± 1.5
- late-stage share of total apoptotic PC3 cells (PC3 cells [2]): ~90%
- proportion of apoptotic cells, fold higher than RM3 (PC3 cells [2]): approximately 2 fold
- cells that entered apoptosis, PC3 (PC3 cells [2]; PBS 4%): ~60%
- decrease of Ki67 in tumor (IHC) (PC3 xenograft tumor): ~65%
- increase of caspase-3 expression in tumor (IHC) (PC3 xenograft tumor): ~1.8 fold
- reduction in METTL3 expression in tumor (IHC) (PC3 xenograft tumor): ~50%
- reduction in m6A levels in tumor (IHC) (PC3 xenograft tumor): ~50%
- average tumor mass relative to PBS group (PC3 xenograft tumor): ~37%
- tumor growth compared to R9 or PBS control groups (PC3 xenograft tumor; [5]): significant suppression of tumor growth
- tumor volume, fold smaller than controls (PC3 xenograft tumor; [5]): 2∼3 fold
- IC50 in PC3, RSM3 vs STM2457 (PC3 cells [3]): 26.5 ± 1.2
- EdU signal relative to PBS control group (PCa cells): ~35.0%
- m6A modification level relative to R9 and PBS treatment groups (m6A modification): ~20%
- cells arrested in sub-G1 phase, PC3 (PC3 cells [4]): ~29.2%
- METTL3 half-life (METTL3): dramatically reduced half-life
- METTL3 (and METTL14) protein levels by WB (METTL3): reduced

Compound: STM2457 [reference compound]
- IC50 in DU145, RSM3 vs STM2457 (DU145 cells): 149.3 ± 10.1
- average tumor mass relative to PBS group (PC3 xenograft tumor): 70%
- IC50 in PC3, RSM3 vs STM2457 (PC3 cells [3]): 95.5 ± 3.6
- METTL3 (and METTL14) protein levels by WB (METTL3): no influence
